For the assay, the system named is Phakopsora pachyrhizi. The assay can be described thus: Phakopsora test (soybeans)/protective. To be noted: protective spray on young soybean plants, inoculated 1 day after spraying, evaluated 10 days after inoculation. The format is in vivo, Phakopsora pachyrhizi on soybeans. As to the method:
Phakopsora Test (Soybeans)/Protective Solvent: 28.5 parts by weight of acetone Emulsifier: 1.5 parts by weight of polyoxyethylene alkyl phenyl ether To produce a suitable preparation of active compound, 1 part by weight of active compound or active compound combination is mixed with the stated amounts of solvent and emulsifier, and the concentrate is diluted with water to the desired concentration. To test for protective activity, young plants are sprayed with the preparation of active compound or active compound combination at the stated rate of application. After the spray coating has dried on, the plants are placed in a greenhouse at a temperature of approximately 23° C. and a relative atmospheric humidity of approximately 70%. 1 day after spraying, the plants are inoculated with an aqueous spore suspension of the causal agent of soybean rust (Phakopsora pachyrhizi). The plants are then placed in a greenhouse at approximately 20° C. and a relative atmospheric humidity of approximately 80%. The test is evaluated 10 days after the inoculation. 0% means an efficacy which corresponds to that of the control, while an efficacy of 100% means that no disease is observed.

We go through two compounds from patent US20120035165A1, “Use of fungicidal compound compositions for controlling certain rust fungi” (Bayer CropScience AG, priority 2008, published 2012).

Molecules are shown by their SMILES.

Consider `Cn1cc(C(=O)Nc2ccc(F)cc2-c2ccc(Cl)c(Cl)c2)c(C(F)F)n1` [(I-2) Bixafen, N-(3′,4′-dichloro-5-fluoro-1,1′-biphenyl-2-yl)-3-(difluoromethyl)-1-methyl-1H-pyrazole-4-carboxamide], for which, for the setting “rate of application 10 ppm”, the Efficacy in % amounted to 50%.

On to `OC(Cc1ccccc1Cl)(Cn1nc[nH]c1=S)C1(Cl)CC1` (centres unmarked) [(III-1) Prothioconazole, Prothioconazole], for which, where the note is “rate of application 0.5 ppm”, the Efficacy in % turned out to be 50%.
